pIC50: −log10 of the molar value. Where two headings read alike, the source gives them in different places.

Here are results for 15 molecules from patent US20250295800A1, “CONJUGATE OF A SINGLE DOMAIN ANTIBODY, A SAPONIN AND AN EFFECTOR MOLECULE, PHARMACEUTICAL COMPOSITION COMPRISING THE SAME, THERAPEUTIC USE OF SAID PHARMACEUTICAL COMPOSITION” (SAPREME TECHNOLOGIES B.V., priority 2021, published 2025).

A short description of data set [1]: Critical micellar concentration (CMC) of saponins, ANS fluorimetric method. The format is physicochemical. The following applies: for CMC: QS saponins derived from Quillaja saponaria. The procedure:
The critical micellar concentration (CMC) of saponin SO1861 derived from Saponaria officinalis (SO) and QS saponins derived from Quillaja saponaria (QS) (Table A5) was determined by the method of DeVendittis et al. (A fluorimetric method for the estimation of the critical micelle concentration of surfactants, Analytical Biochemistry, Volume 115, Issue 2, August 1981, Pages 278-286) as follows:
The emission spectrum of 8-Anilinonaphthalene-1-sulfonic acid (ANS) in either purified water (MQ) or PBS (Dulbecco's PBS+/+) was determined at dry weight concentrations of saponins ranging from […] to cover the range below and above the CMC. Above the CMC, the fluorescence yield of ANS increases and the wavelength of maximum emission decreases due to portioning of the fluorescent dye into micelles. Fluorescence yields were recorded on a Fluoroskan Ascent FL (Thermo Scientific) at an excitation wavelength of 355 nm, and an emission wavelength of 460 nm. 6 μg at a concentration of 75.86 μM of ANS were used per sample and measurement.

The subject of data set [2] is endosomal escape of effector molecule. The data set can be described thus: Endosomal escape enhancing activity of saponins (cell-based assays, in vivo models). The following applies: in vivo animal tumor models, LDL lowering therapy models, free or cleavably conjugated saponin.
Data set [3] can be described thus: Release kinetic assay of saponin from linker at various pH. The format is physicochemical. The settings on record: pH 4.0, 37° C. The procedure:
SO1861-SC-Mal (blocked) (saponin covalently coupled to the linker through an acid-labile semicarbazone (sc) bond) was tested for efficient pH sensitive release with a release kinetic assay and compared with release kinetics for SO1861-EMCH (blocked) (saponin covalently coupled to the linker through an acid-labile hydrazone bond). The assay was performed in buffers with pH 7.4, pH 6.0 pH, pH 5.0, pH 4.0 at 37° C. for 24 hours.

The subject of data set [4] is A431 cells (EGFR++/HER2+/-/CD71+). The data set can be described thus: Cell viability / cell killing (MTS) assay on A431 cells. The format is cell-based, human. The procedure:
(§1) Cells were seeded in a 96 well plate at 5.000-10.000 c/w in 100 μL/well and incubated overnight at 37° C. The next day 10× concentrated treatment-mix samples were prepared in PBS, which contain antibody-conjugated SO1861 (i.e. a ‘binding molecule’ or an ‘endosomal escape enhancing conjugate’ of the invention) and targeted-toxin (i.e. a ‘binding molecule’) both at 10× final concentration. The media was removed from the cell culture plate and replaced by 180 μL culture media, followed by the addition of 20 μL treatment-mix/well. For control, 10× treatment-mix samples were prepared that contained the corresponding concentrations of only antibody-conjugated SO1861, only antibody, only SO1861, only targeted-toxin, or PBS without compound as vehicle control. After treatment the cells were incubated for 72 hr at 37° C. before the cell viability was determined by a MTS-assay, performed according to the manufacturer's instruction (CellTiter 96® AQueous One Solution Cell Proliferation Assay, Promega). Briefly, the MTS solution was diluted 20× in DMEM without phenol red (PAN-Biotech GmbH) supplemented with 10% FBS (PAN-Biotech GmbH). The cells were washed once with 200 μL PBS per well, after which 100 μL diluted MTS solution was added per well. The plate was incubated for approximately 20-30 minutes at 37° C. Subsequently, the optical density at 492 nm was measured on a Thermo Scientific Multiskan FC plate reader (Thermo Scientific). For quantification the background signal of ‘medium only’ wells was subtracted from all other wells, before the ratio of untreated/treated cells was calculated, by dividing the background corrected signal of untreated wells over the background corrected signal of the treated wells.
(§2) After treatment the cells were incubated for 72 hr at 37° C. before the cell viability was determined by a MTS-assay, performed according to the manufacturer's instruction (CellTiter 96@AQueous One Solution Cell Proliferation Assay, Promega). Briefly, the MTS solution was diluted 20× in DMEM without phenol red (PAN-Biotech GmbH) supplemented with 10% FBS. The cells were washed once with 200 μL/PBS well, after which 100 μL diluted MTS solution was added/well. The plate was incubated for approximately 20-30 minutes at 37° C. Subsequently, the OD at 492 nm was measured on a Thermo Scientific Multiskan FC plate reader (Thermo Scientific). For quantification the background signal of ‘medium only’ wells was subtracted from all other wells, before the cell viability percentage of treated/untreated cells was calculated, by dividing the background corrected signal of treated wells over the background corrected signal of the untreated wells (×100).

For data set [5], the system named is A2058 cells (EGFR-/HER2+/-/CD71+). Kind of data set: Cell viability / cell killing (MTS) assay on A2058 cells. The class given is cell-based, human. How it is done: as §1, §2
Data set [6] has as its system MDA-MB-468 cells (HER2-/EGFR++/CD71+). The data set can be described thus: Cell killing (MTS) assay on MDA-MB-468 cells. The class given is cell-based, human. How it is done:
as §2

For data set [7], the system named is SK-BR-3 cells (HER2++/EGFR+/CD71+). The data set can be described thus: Cell killing (MTS) assay on SK-BR-3 cells. The format is cell-based, human. The procedure:
as §2

The target of the next data set is EGFR (human) (UniProt P00533). Kind of data set: cell-based or functional assay.

In the case of `CC(=O)O[C@@H]1[C@H](O[C@@H]2O[C@@H](C)[C@H](O)[C@@H](O)[C@H]2O)[C@@H](O[C@@H]2O[C@@H](C)[C@H](O[C@@H]3OC[C@@H](O)[C@H](O[C@@H]4OC[C@](O)(CO)[C@H]4O)[C@H]3O)[C@@H](O[C@@H]3O[C@H](CO)[C@@H](O)[C@H](O)[C@H]3O)[C@H]2O)[C@H](OC(=O)[C@]23CCC(C)(C)C[C@H]2C2=CC[C@@H]4[C@@]5(C)CC[C@H](O[C@@H]6O[C@H](C(=O)O)[C@@H](O)[C@H](O[C@@H]7OC[C@@H](O)[C@H](O)[C@H]7O)[C@H]6O[C@@H]6O[C@H](CO)[C@H](O)[C@H](O)[C@H]6O)[C@@](C)(C=O)[C@@H]5CC[C@@]4(C)[C@]2(C)C[C@H]3O)O[C@@H]1C` [QS7, QS-7], in data set [1], the “CMC” value came to 230 ± 25 µM.
In the case of `CCC(C)C(CC(O)CC(=O)OC1C(C)OC(OC(=O)C23CCC(C)(C)CC2C2=CCC4C5(C)CCC(OC6OC(C(=O)O)C(O)C(OC7OCC(O)C(O)C7O)C6OC6OC(CO)C(O)C(O)C6O)C(C)(C=O)C5CCC4(C)C2(C)CC3O)C(OC2OC(C)C(OC3OCC(O)C(OC4OCC(O)(CO)C4O)C3O)C(OC3OC(CO)C(O)C(O)C3O)C2O)C1O)OC(=O)CC(O)CC(OC1OC(CO)C(O)C1O)C(C)CC` (stereo not shown) [QS18, QS-18], the “CMC” value in data set [1] was 68 ± 7 µM.
In the case of `C[C@@H]1O[C@@H](O[C@H]2[C@H](OC(=O)[C@]34CCC(C)(C)C[C@H]3C3=CC[C@@H]5[C@@]6(C)CC[C@H](O[C@H]7O[C@H](C(=O)O)[C@@H](O)[C@H](O[C@@H]8OC[C@@H](O)[C@H](O)[C@H]8O)[C@H]7O[C@@H]7O[C@H](CO)[C@H](O)[C@H](O)[C@H]7O)[C@@](C)(C=O)[C@@H]6CC[C@@]5(C)[C@]3(C)CC4)O[C@H](C)[C@H](O[C@@H]3O[C@H](C)[C@@H](O)[C@H](O)[C@H]3O)[C@@H]2O)[C@H](O)[C@H](O)[C@H]1O[C@@H]1OC[C@@H](O)[C@H](O[C@@H]2OC[C@@H](O)[C@H](O)[C@H]2O)[C@H]1O` [SA1641], the “endosomal escape enhancing activity” value in data set [2] is “activity was confirmed”.
As for `CC(=O)OC1C(C)OC(OC2C(C)OC(OC(=O)[C@]34CCC(C)(C)CC3C3=CCC5[C@@]6(C)CC[C@H](OC7OC(C(=O)O)C(O)C(OC8OCC(O)C(O)C8O)C7OC7OC(CO)C(O)C(O)C7O)[C@@](C)(C=O)C6CC[C@@]5(C)[C@]3(C)C[C@H]4O)C(OC3OC(C)C(OC4OCC(O)C(OC5OCC(O)C(O)C5O)C4O)C(O)C3O)C2O)C(O)C1OC1OCC(O)C(O)C1O` (stereo partly shown) [SO1832], the “endosomal escape enhancing activity” value in data set [2] is listed as “activity was confirmed”.
On to `CC(=O)OC1C(C)OC(OC2C(C)OC(OC(=O)[C@]34CCC(C)(C)CC3C3=CCC5[C@@]6(C)CC[C@H](OC7OC(C(=O)O)C(O)C(OC8OCC(O)C(O)C8O)C7OC7OC(CO)C(O)C(O)C7O)[C@@](C)(C=NNC(=O)CCCCCN7C(=O)CC(SCCO)C7=O)C6CC[C@@]5(C)[C@]3(C)C[C@H]4O)C(OC3OC(C)C(OC4OCC(O)C(OC5OC(CO)C(O)C(O)C5O)C4O)C(O)C3O)C2O)C(O)C1OC1OCC(O)C(O)C1O` (stereo partly shown) [SO1861-EMCH (blocked)], for which, in data set [3], the “time to 50% release of saponin” value is 12 h.
Consider `CC(=O)OC1C(C)OC(OC2C(C)OC(OC(=O)[C@]34CCC(C)(C)CC3C3=CCC5[C@@]6(C)CC[C@H](OC7OC(C(=O)O)C(O)C(OC8OCC(O)C(O)C8O)C7OC7OC(CO)C(O)C(O)C7O)[C@@](C)(/C=N/NC(=O)CCCCCN7C(=O)C=CC7=O)C6CC[C@@]5(C)[C@]3(C)C[C@H]4O)C(OC3OC(C)C(OC4OCC(O)C(OC5OC(CO)C(O)C(O)C5O)C4O)C(O)C3O)C2O)C(O)C1OC1OCC(O)C(O)C1O` (stereo partly shown) [SO1861-EMCH], for which the pIC50 was 5.82 in data set [4] (A431 (EGFR++), titrated on fixed 5 pM bivalent VHH-EGFR-dianthin, read-out: cell killing IC50); 6.00 in data set [4] (A431 (EGFR++), titrated on fixed 10 pM cetuximab-saporin, read-out: cell killing IC50); 5.82 in data set [4] (A431 (EGFR++), titrated on fixed 10 pM matuzumab-dianthin, read-out: cell killing IC50); 5.70 in data set [4] (A431 (EGFR++/CD71+), titrated on fixed 10 pM CD71mab-saporin, read-out: cell killing IC50); 5.82 in data set [5] (A2058 (EGFR-/CD71+), titrated on fixed 10 pM CD71mab-saporin). In addition, the cell killing entry in data set [5] (A2058 (EGFR-), titrated on fixed 5 pM bivalent VHH-EGFR-dianthin) is reported as “not effective”; in data set [5] (A2058 (EGFR-), titrated on fixed 10 pM matuzumab-dianthin), “not effective”.
Take GE1741: in data set [2], the “endosomal escape enhancing activity” value is listed as “activity was confirmed”.
As to QS-17 [QS17], in data set [1], the “CMC” value was found to be 70 ± 7 µM.
On to QS-21 [QS21], for which, in data set [2], the “endosomal escape enhancing activity” value is on record as “activity was confirmed”. Moreover, the “CMC” value in data set [1] was found to be 75 ± 8 µM.
Regarding SO1700, in data set [2], the “endosomal escape enhancing activity” value was “activity was confirmed”.
With SO1730, the “endosomal escape enhancing activity” value in data set [2] is given as “activity was confirmed”.
On the same count and under the same terms, the same measure for SO1772: “activity was confirmed”.
On to SO1861, for which the pIC50 in data set [4] (A431 (CD71+), SO1861 titrated on fixed 50 pM VHHCD71-dianthin, read-out: cell killing IC50) is 6.70; in data set [4] (A431 (EGFR++), SO1861 titrated on fixed 50 pM VHHEGFR-dianthin, read-out: cell killing IC50) it was 6.40; in data set [4] (A431, SO1861 alone, read-out: SO1861 tolerated concentration IC50) it was 6.00; in data set [6] (MDA-MB-468 (EGFR++), SO1861 titrated on fixed 50 pM VHH-EGFR-dianthin), 6.52; in data set [6] (MDA-MB-468 (EGFR++), titrated on fixed 1 pM or 5 pM bivalentVHH-EGFR-dianthin) it was 6.00; in data set [6] (MDA-MB-468 (HER2-/CD71+), SO1861 titrated on fixed 50 pM VHH-CD71-dianthin), 6.70. Besides, the pIC50 in data set [7] (SK-BR-3 (EGFR+), SO1861 titrated on fixed 50 pM VHH-EGFR-dianthin) was 6.15; in data set [7] (SK-BR-3 (HER2++/CD71+), SO1861 titrated on fixed 50 pM VHH-CD71-dianthin) it was 6.70; in data set [7] (SK-BR-3 (HER2++/CD71+), SO1861 titrated on fixed 50 pM VHH-HER2-dianthin), 6.70; in data set [5] (A2058 (CD71+), SO1861 titrated on fixed 50 pM VHHCD71-dianthin), 6.70; in data set [5] (A2058 (HER2+/-), SO1861 titrated on fixed 50 pM VHH-HER2-dianthin), 6.15. Further, the “cell killing IC50” value in data set [4] (A431 (HER2+/-), SO1861 titrated on fixed 50 pM VHH-HER2-dianthin) was “no activity”; in data set [6] (MDA-MB-468 (HER2-/CD71+), SO1861 titrated on fixed 50 pM VHH-HER2-dianthin), “no enhanced activity compared to SO1861 alone”; in data set [5] (A2058 (EGFR-), SO1861 titrated on fixed 50 pM VHHEGFR-dianthin), “no activity”. Besides, the “endosomal escape enhancing activity” value in data set [2] is on record as “activity was confirmed”. This molecule also gave a CMC value in data set [1] (native SO1861 in PBS) of 185 µM.
For the molecule SO1904, the “endosomal escape enhancing activity” value in data set [2] was “activity was confirmed”.
Turning to cetuximab-saporin (antibody), the cell killing on MDA-MB-468 (EGFR++), alone with EGFR (human) stood at 300 pM.
